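Tested at 5 concentrations; 48 h exposure; 96-well plates; endpoints linearly interpolated, else capped at highest concentration. The concentration for 50% growth inhibition is given as GI50. TGI marks complete inhibition of growth.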

Our source for the TGI and GI50 values is PubChem BioAssay (NCI).

Test systems include HOP-62 NSCLC; HCC-2998 colon; NCI-H226 lung; ACHN renal; HOP-92 NSCLC; IGROV1 ovarian; SK-MEL-2 melanoma; HCT-116 colon; DU-145 prostate; SR leukemia.
Test in all cases: DTP human tumour cell line panel, 48 h

For `Cc1cccc(C)c1NC(=O)C(=O)Cc1nc2ccccc2s1`, the TGI with HOP-62 NSCLC, in the test with HCC-2998 colon, in the test with NCI-H226 lung, in the test with ACHN renal, in the test on HOP-92 NSCLC and with IGROV1 ovarian was over 100 µM throughout. Further, the TGI in the test on SK-MEL-2 melanoma and in the test on HCT-116 colon was over 100 µM throughout.

For the compound `CCOC(=O)Nc1ccc2nc(-c3cscn3)[nH]c2c1`, the GI50 with HOP-62 NSCLC is 4.91 µM; with HCC-2998 colon, 18.5 µM; in the test with NCI-H226 lung it was 30.7 µM; in the test on ACHN renal it was 8.45 µM; with HOP-92 NSCLC, over 26.2 µM; with DU-145 prostate, 9.61 µM. For the same compound, the figures for the GI50 in the test on IGROV1 ovarian, in the test with SK-MEL-2 melanoma and in the test with HCT-116 colon were 6.3 µM, 3.25 µM and 3.87 µM, respectively. Besides, the TGI in the test on HOP-62 NSCLC, in the test with HCC-2998 colon, in the test with NCI-H226 lung, with ACHN renal, in the test with HOP-92 NSCLC and in the test with DU-145 prostate was over 100 µM throughout. In addition, the concentration for total growth inhibition (TGI) with IGROV1 ovarian, with SK-MEL-2 melanoma and with HCT-116 colon was over 100 µM throughout.

In the case of `Cc1cc(Cl)ccc1NC(=O)CCCC(=O)C1C/C(=N/O)CC/C1=N\O` (stereo not drawn), the TGI with HOP-62 NSCLC, with HCC-2998 colon, with NCI-H226 lung, with ACHN renal, in the test with HOP-92 NSCLC and in the test with IGROV1 ovarian was over 100 µM throughout. The total growth inhibition concentration (TGI) in the test with SK-MEL-2 melanoma and with HCT-116 colon was over 100 µM in each case.

Consider `COc1cc2c(/C=C3\C(=O)Nc4ccccc43)c[nH]c2cc1C`, for which the GI50 in the test on HOP-62 NSCLC is under 0.01 µM; with HCC-2998 colon, under 0.0179 µM; in the test on NCI-H226 lung, 0.035 µM; with ACHN renal, 1.64 µM; with HOP-92 NSCLC it was 1.54 µM; in the test on DU-145 prostate, 0.0242 µM. The GI50 in the test with SK-MEL-2 melanoma was 17.7 µM; in the test with HCT-116 colon, under 0.01 µM. Also, the TGI in the test on HOP-62 NSCLC was 10.7 µM; in the test on HCC-2998 colon, 0.167 µM; in the test on NCI-H226 lung, 19.7 µM; in the test with ACHN renal, 4.51 µM; with HOP-92 NSCLC, 22.3 µM; with DU-145 prostate, 12.3 µM. The total growth inhibition concentration (TGI) in the test with SK-MEL-2 melanoma is over 63.4 µM; with HCT-116 colon, 1.22 µM.

Consider `COc1ccc(-c2ccc(CC(=O)O)cc2)cc1OC`, for which the TGI in the test on SR leukemia, in the test on HOP-62 NSCLC, in the test with NCI-H226 lung, in the test on ACHN renal, with HOP-92 NSCLC and with SK-MEL-2 melanoma was over 100 µM throughout. The compound also gave a TGI in the test on HCT-116 colon of over 100 µM.

As to `Cn1c(COC(=O)NCCc2ccccn2)nc2c(N3CCOCC3)nc(Cl)nc21`, the GI50 is 1.65 µM in the test with HOP-62 NSCLC; 1.76 µM in the test on HCC-2998 colon; 12.3 µM in the test on NCI-H226 lung; 1.27 µM in the test on ACHN renal; 1.13 µM with HOP-92 NSCLC; 1.59 µM in the test on DU-145 prostate. Moreover, the GI50 in the test with IGROV1 ovarian was 1.31 µM; in the test on SK-MEL-2 melanoma, 1.88 µM; in the test on HCT-116 colon, 0.847 µM. The concentration for total growth inhibition (TGI) with HOP-62 NSCLC came out at 4.88 µM; in the test with HCC-2998 colon, 3.57 µM; in the test with NCI-H226 lung, 30.4 µM; with ACHN renal, 2.57 µM; in the test on HOP-92 NSCLC, 3.22 µM; in the test on DU-145 prostate, 3.11 µM. Also, the values for the total growth inhibition concentration (TGI) in the test with IGROV1 ovarian, in the test with SK-MEL-2 melanoma and in the test with HCT-116 colon were 2.84 µM, 3.81 µM and 2.25 µM, respectively.

Consider `C1=CC(=P(c2ccccc2)(c2ccccc2)c2ccccc2)C=C1`, for which the concentration for total growth inhibition (TGI) in the test with HOP-62 NSCLC worked out at 41.6 µM; in the test on HCC-2998 colon it was 24.3 µM; in the test with ACHN renal, 28.2 µM; with HOP-92 NSCLC, 22.8 µM; in the test with IGROV1 ovarian it was 24.6 µM; in the test on SK-MEL-2 melanoma, 30.3 µM.

With `Cc1nnc2n1N=C(c1ccccc1)C(c1ccccc1)S2` (stereo not drawn), the TGI in the test on HOP-62 NSCLC, with HCC-2998 colon, in the test with ACHN renal, in the test with HOP-92 NSCLC, with IGROV1 ovarian and with SK-MEL-2 melanoma was over 100 µM throughout. Besides, the total growth inhibition concentration (TGI) with HCT-116 colon was over 100 µM.

For the compound `NCCO/C=C/C(N)C(=O)O` (stereo not drawn), the TGI in the test with HOP-62 NSCLC, in the test with HCC-2998 colon, in the test on NCI-H226 lung, with ACHN renal, in the test with HOP-92 NSCLC and in the test on DU-145 prostate was over 100 µM each time. Also, the TGI with IGROV1 ovarian, in the test on SK-MEL-2 melanoma and in the test on HCT-116 colon was over 100 µM in each case.

Turning to `CCC[CH2][Sn-]([CH2]CCC)([CH2]CCC)[O]C(=O)C(C)C`, the GI50 in the test on HOP-62 NSCLC was 0.157 µM; with HCC-2998 colon, 0.164 µM; in the test on NCI-H226 lung it was 0.161 µM; in the test on ACHN renal, 0.142 µM; with HOP-92 NSCLC, 0.037 µM; in the test on DU-145 prostate, 0.124 µM. Moreover, the GI50 in the test on IGROV1 ovarian is 0.166 µM; in the test with SK-MEL-2 melanoma it was 0.189 µM; with HCT-116 colon, 0.0553 µM. Further, the TGI came out at 0.297 µM with HOP-62 NSCLC; 0.329 µM in the test on HCC-2998 colon; 0.34 µM in the test on NCI-H226 lung; 0.273 µM in the test on ACHN renal; 0.162 µM with HOP-92 NSCLC; 0.252 µM with DU-145 prostate. The total growth inhibition concentration (TGI) with IGROV1 ovarian was 0.324 µM; in the test on SK-MEL-2 melanoma it was 0.411 µM; in the test on HCT-116 colon, 0.182 µM.

`Cn1c(COC(=O)NCCn2ccnc2)nc2c(N3CCOCC3)nc(-c3ccccc3)nc21`: the GI50 was 1.54 µM in the test on HOP-62 NSCLC; 1.41 µM with HCC-2998 colon; 1.72 µM with NCI-H226 lung; 0.353 µM in the test with ACHN renal; 0.343 µM with HOP-92 NSCLC; 0.888 µM in the test with DU-145 prostate. Further, the results for the GI50 in the test on IGROV1 ovarian, in the test with SK-MEL-2 melanoma and in the test on HCT-116 colon were 0.657 µM, 1.68 µM and 0.136 µM, respectively. Further, the TGI in the test with HOP-62 NSCLC is 3.9 µM; in the test on HCC-2998 colon, 2.9 µM; in the test with NCI-H226 lung, 3.6 µM; in the test on ACHN renal, 1.31 µM; with HOP-92 NSCLC, 1.72 µM; in the test with DU-145 prostate, 2.13 µM. The TGI was 1.94 µM in the test on IGROV1 ovarian, 3.3 µM in the test with SK-MEL-2 melanoma and 0.351 µM in the test with HCT-116 colon.

As usually defined, the TGI is the concentration at which net growth stops. A lower TGI goes with greater sensitivity of the cells. By GI50 is commonly meant the concentration at which growth is held to half of that of the control.
